{"source": "patent US12115178B2", "about": "“Acylated active agents and methods of their use for the treatment of autoimmune disorders” (Flagship Pioneering Innovations V, Inc., priority 2018, dated 2024)", "key": {"[1]": {"test_system": "DSS Colitis", "assay": "In vivo DSS colitis", "design": "species or system Swiss Webster mice", "details": "100 mg/kg once a day oral gavage, study day 0 through 7, compared to the vehicle control", "from_the_text": "Specific pathogen-free female Swiss Webster mice, 6-8 weeks old, weighing 16-20 g were obtained from Harlan. Mice were randomized into treatment groups (n=10) based on body weight on study day −2. From study day 0 through 5, all groups were given 3% dextran sulfate sodium (DSS, Spectrum, Lot #2DC0020) in drinking water. On study day 5 through, drinking water was switched to water without DSS until the study end on day 7. From study day 0 through 7, the negative control (vehicle), positive control (cyclosporine A), and the treatment groups were given vehicle (1% Methylcellulose (Sigma, 400 cP)), cyclosporine A (70 mg/kg), and compound 44 (100 mg/kg) once a day until study day 7 via oral gavage. On study day 7, animals were anesthetized with Isoflurane and bled to exsanguination followed by cervical dislocation. The entire colon was removed and the overall efficacy of compound 44 was assessed based on colon histopathology. […] Statistical analysis was performed with GraphPad Prism (GraphPad Software). Mann-Whitney U test was used to assess significance between the vehicle control and each treatment group."}, "[2]": {"test_system": "adoptive T-cell transfer mice", "assay": "Adoptive T-cell transfer study", "type": "in vivo, CB-17 SCID mice", "details": "compound 44 100 mg/kg, olsalazine 30 mg/kg, through day 42, compared to the vehicle control", "from_the_text": "On study day 0, naïve T-cells were obtained from the spleen of 11 to 12 week-old Balb/C mice using the SCID Cell Separation Protocol with the following labelling scheme; CD4+CD45RB^highCD25− and CD4+CD45RB^lowCD25+ cell (APC CD4 Antibody (100412), FITC CD45RB Antibody (103306), PE CD25 Antibody (101904), from BioLegend, San Diego, CA, and CD4 cell enrichment kit: 19752A, Stemcell Technologies, Cambridge, MA) and the 4×10^5 of CD4^+CD45RB^highCD25− cells were transferred 6-7 weeks old CB-17 SCID mice. Recipient mice were randomized based on their body weight (n=12 mice/group), and received […] of vehicle (0.5% methyl-cellulose) (vehicle control), 0.5 mg per mouse of anti-IL-12 (positive control), 30 mg/kg of olsalazine (positive treatment group), and 100 mg/kg of compound 44 (compound treatment group) through day 42. On day 42, animals were anesthetized with Isoflurane and bled to exsanguination followed by cervical dislocation. The entire colon was removed and the overall efficacy of compound 44 was assessed based on colon length and weight per length. […] Statistical analysis was performed with GraphPad Prism (GraphPad Software). Mann-Whitney U test was used to assess significance between the vehicle control and each treatment group."}, "[3]": {"assay": "Detection of mesalamine and compound 44 in feces after dosing with compound 44", "type": "in vivo, Swiss Webster mice", "details": "detected after dosing with Compound 44, oral gavage 10 mg/mL suspension at 10 mL/kg, mice", "procedure": "Samples were frozen and stored at −70° C. until analysis. Quantification of mesalamine and compound 44 were done via bioanalysis using LC-MS/MS."}, "[4]": {"assay": "Detection of compound 44 in whole blood after dosing with compound 44", "type": "in vivo, Swiss Webster mice", "details": "detected after dosing with Compound 44, oral gavage 10 mg/mL suspension at 10 mL/kg, mice", "procedure": "Whole blood (125 uL) was collected submandibular and transferred to chilled K2EDTA tubes pre-filled with 125 uL of acetonitrile and frozen at −70° C. until analysis. Mice (1-3) were sampled at 5 min, 1 hr, and 8 hr. Mice (4-6) were sampled at 15 min, 2 hours and 24 hours. Mice (7-9) were sampled at 30 min and 4 hrs. Quantification of compound 44 was done via bioanalysis using LC-MS/MS."}, "[5]": {"assay": "Assay 1. Stability in Simulated Gastric Fluid (SGF)", "type": "in vitro ADME", "details": "SGF pH 1.6 with pepsin, 1 μM, 37° C.", "method_in_brief": "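Degradation rate from LC/MS of acetonitrile-quenched aliquots (T0, then regular intervals). Fresh SGF (pH 1.6 NaCl, FaSSIF powder, pepsin 0.1 mg/mL) held compound at 1 μM final, 37° C; 1 mM DMSO stock.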"}, "[6]": {"assay": "Assay 2. Stability in Simulated Intestinal Fluid (SIF)", "type": "in vitro ADME", "details": "SIF pH 6.7 with pancreatin, 1 μM, 37° C.", "method_in_brief": "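Degradation rates came from LC/MS of acetonitrile-quenched samples drawn at intervals, starting at T0. The medium was freshly made pH 6.7 FaSSIF containing pancreatin, and test compound was present at 1 µM while being shaken at 37 °C.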"}, "[7]": {"test_system": "CD4+CD25+ Treg cells", "assay": "In vivo induction of CD4+CD25+ Treg cells in high-fat diet fed mice", "details": "C57BL/6 mice on high-fat diet, 6% in diet ad libitum; compared to EGCG, acetate, or their combination", "from_the_text": "Acylated active agents disclosed herein may be useful in modulating autoimmunity markers and for treating autoimmune disorders."}, "[8]": {"test_system": "neutrophil", "assay": "Neutrophil chemokine production assay", "type": "cell-based, human", "details": "12 h", "procedure": "A volume 25 mL of human blood was layered over 15 mL of Histopaque®-1077 and centrifuged at 500 g, RT, for 30 min with no break applied to the centrifuge. The PBMC band and Histopaque®-1077 layer were removed leaving behind the bottom red layer which was mixed with 40 mL of 1× red blood cell (RBC) lysis buffer (Sigma-Aldrich) was and split into two 50 mL tubes. The volume for both fractions was brought to 50 mL with RBC lysis buffer, mixed by inversion, and then incubated at RT for 10 min. Solutions were centrifuged at 250 g, for 10 min at RT and the supernatant liquids removed. The reddish pellets were re-suspended in 1 mL of RBC lysis buffer and combined. The cell suspension was incubated for 5 min at RT in RBC lysis buffer. After incubation 45 mL of Hanks Balanced Salt Solution with no calcium, magnesium or phenol red (HBSS−) was added, the cell suspension was spun (250 g for 10 min at RT), and supernatant liquids were removed. The white pellet was re-suspended in 1 mL of HBSS−, and cell counts were determined. The neutrophil cell suspension was brought to a concentration of 1.11e6 cells/mL in RPMI complete (Sigma-Aldrich), and 180 μL of cell suspension was transferred to all wells within a sterile 96-well tissue culture treated plate resulting in 2.0e5 cells/well. […] After incubation, 10 μL of 2 μg/mL LPS solution in RPMI complete was added to each well except for control wells, which received an additional 10 μL of media. Cells were incubated for 12 h (37° C., 5% CO2), after which plates were centrifuged at 250 g, RT, for 5 min and supernatant liquids were obtained and stored at −80° C. until analyzed via Luminex® Multiplex Assay for various chemokines and cytokines. Three data points were acquired from two different blood donors and averaged."}, "[9]": {"test_system": "AhR", "assay": "AhR activation in Caco-2 cells through CYP1A1 mRNA expression", "details": "overnight", "procedure": "Caco-2 cells from American Type Culture Collection (ATCC) were plated in a sterile tissue culture treated 96-well plate (ThermoFisher) at […], and grown overnight at 37° C., 5% CO2 in DMEM complete (Gibco) in order to achieve confluence. After the incubation medium was aspirated off of the Caco-2 monolayers, tissues were then washed with 200 μL of warmed PBS solution, and subsequently 190 μL of pre-warmed growth medium was added to each well. Compounds of interest were diluted at a 20× concentration in growth medium containing 2% DMSO, and 10 μL of compound solutions were added to respective wells in triplicate. Compounds where incubated overnight at 37° C., 5% CO2. 2-(1′H-indole-3′-carbonyl)-thiazole-4-carboxylic acid methyl ester (ITE) was used as the positive control for AhR activation at 1 and 100 μM concentrations. At the end of the incubation, medium was aspirated off of the Caco-2 cells, and the cells washed with 100 μL of cold PBS solution. RNA was extracted via the TaqMan™ Gene Expression Cells-to-CT™ Kit (ThermoFisher) according to the manufacturers protocol. The QuantStudio 6 Flex (Applied Biosciences) was used to analyze mRNA levels of CYP1A1 using GAPDH as the endogenous control. TaqMan™ probe sets for both genes were acquired from ThermoFisher. Samples were run in triplicate and data was analyzed using the QuantStudio software and reported as linear (Table 1) and log 2(ΔΔCT) values. Statistical analysis was performed using a two-tailed t-test comparing CYP1A1 levels in the presence of each individual compound to the vehicle negative control."}, "[10]": {"test_system": "Caco-2 colonocytes", "assay": "Human Caco-2 barrier integrity assay (TEER)", "type": "cell-based", "details": "48 hours", "procedure": "At 70-80% confluency, cells were trypsinized and seeded in 0.4 cm^2 transwell collagen I coated membranes with supplemented DMEM in both apical and basolateral compartments. Cells were seeded at a density of 200,000 cells per well and maintained for 10 days to form a polarized barrier with a TransEpithelial […] After 48 hours, TEER readings were taken again and viability was measured by CellTiter 96® AQueous One Solution Cell Proliferation Assay (Promega). The percent change in TEER over the 48 hours was determined and normalized to the 0.1% DMSO control (Table 6)."}, "[11]": {"test_system": "naïve CD4+ T cells", "assay": "Human regulatory T cell differentiation assay", "type": "cell-based", "details": "6 days", "method_in_brief": "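Naïve CD4+ T cells from healthy-donor PBMCs cultured 6 days with 5 ng/ml TGF-β, 100 U/ml IL-2 and CD3/CD28/CD2 activator, with or without compound. Flow cytometry: % Treg = live CD4+CD25+FOXP3+ cells over total CD4 T cells; one-way ANOVA.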"}}}
{"smiles": "CCCC(=O)O[C@H]1[C@H](OC(=O)CCC)COC(Oc2ccc(N)cc2C(=O)O)[C@@H]1OC(=O)CCC.Cl", "note": "(stereo in doubt) [Compound 44, 5-amino-2-(((2S,3R,4S,5R)-3,4,5-tris(butyryloxy)tetrahydro-2H-pyran-2-yl)oxy)benzoic acid hydrochloride]", "values": [{"measurement": "mucosal thickness (colon histopathology, FIG. 2)", "setting": "[1]", "result": "significant reduction in mucosal thickness"}, {"measurement": "colon length (FIG. 3A)", "setting": "[2]", "result": "significant increased"}, {"measurement": "colon weight per length (FIG. 3B)", "setting": "[2]", "result": "reduced"}, {"measurement": "Concentration, uM (compound 44)", "setting": "[3]", "result": 10.72, "unit": "µM"}, {"measurement": "Concentration, uM (compound 44)", "setting": "[4]", "result": 0.68, "unit": "µM"}]}
{"smiles": "CC(=O)Oc1cc(OC(C)=O)c2c(c1)O[C@H](c1cc(OC(C)=O)c(OC(C)=O)c(OC(C)=O)c1)[C@H](OC(=O)c1cc(OC(C)=O)c(OC(C)=O)c(OC(C)=O)c1)C2", "note": "[Compound 2, [(2R,3R)-5,7-diacetoxy-2-(3,4,5-triacetoxyphenyl)chroman-3-yl] 3,4,5-triacetoxybenzoate]", "values": [{"measurement": "Assay 1 (SGF) (% Remaining @ 1 hour)", "setting": "[5]", "result": "C (>75% of the tested compound remaining)"}, {"measurement": "Assay 2 (SIF) (% @ Remaining 4 hours)", "setting": "[6]", "result": "A (<25% of the tested compound remaining)"}, {"measurement": "CD4+CD25+ Treg cells (CD4+CD25+ cell counts as a percentage of all CD4+ T cells, FIG. 1)", "setting": "[7]", "result": "induce CD4^+CD25^+ Treg cells"}]}
{"smiles": "O=C(O[C@@H]1Cc2c(O)cc(O)cc2O[C@@H]1c1cc(O)c(O)c(O)c1)c1cc(O)c(O)c(O)c1", "note": "[EGCG, epigallocatechin gallate]", "values": [{"measurement": "% IL-8 (Vehicle + LPS = 100%)", "setting": "[8]; 0.1 μM", "result": "− (− = >90% Vehicle)"}, {"measurement": "% MIP-1α (Vehicle + LPS = 100%)", "setting": "[8]; 0.1 μM", "result": "− (− = >90% Vehicle)"}, {"measurement": "% MIP-1β (DMSO + LPS = 100%)", "setting": "[8]; 0.1 μM", "result": "− (− = >90% Vehicle)"}, {"measurement": "% IL-8 (Vehicle + LPS = 100%)", "setting": "[8]; 1.0 μM", "result": "− (− = >90% Vehicle)"}, {"measurement": "% MIP-1α (Vehicle + LPS = 100%)", "setting": "[8]; 1.0 μM", "result": "− (− = >90% Vehicle)"}, {"measurement": "% MIP-1β (DMSO + LPS = 100%)", "setting": "[8]; 1.0 μM", "result": "− (− = >90% Vehicle)"}, {"measurement": "Average CYP1A1 mRNA levels", "setting": "[9]; 0.1 μM", "result": "− (- = <2-fold Vehicle)"}, {"measurement": "Average CYP1A1 mRNA levels", "setting": "[9]; 1.0 μM", "result": "− (- = <2-fold Vehicle)"}, {"measurement": "% Change in TEER from DMSO", "setting": "[10]; 100 nM + cytokines", "result": "− (<125%: −)"}, {"measurement": "% Change in TEER from DMSO", "setting": "[10]; 1 μM + cytokines", "result": "− (<125%: −)"}, {"measurement": "Cell viability % DMSO", "setting": "[11]; 100 nM", "result": "= (90%> <110%: =)"}, {"measurement": "Treg induction % DMSO", "setting": "[11]; 100 nM", "result": "= (90%> <110%: =)"}, {"measurement": "Cell viability % DMSO", "setting": "[11]; 1 uM", "result": "= (90%> <110%: =)"}, {"measurement": "Treg induction % DMSO", "setting": "[11]; 1 uM", "result": "= (90%> <110%: =)"}]}
{"smiles": "O=C(O)c1cc(/N=N/c2ccc(O)c(C(=O)O)c2)ccc1O", "note": "[olsalazine, reference compound]", "values": [{"measurement": "colon weight per length (FIG. 3B)", "setting": "[2]", "result": "significantly increased the colon weight per length"}]}
